# Data from article PMC7374098, “Design of thienopyranone-based BET inhibitors that bind multiple synthetic lethality targets” (Scientific Reports, 2020).
# Columns and labels:
# CHLA-255 cells = test: Propidium iodide flow cytometry cell cycle analysis, CHLA-255; assay type: cell-based; settings: 24 h
# Experimental: (§1) (Fig. 2a). […] Palbociclib was used as control given its known inhibition of CDK4/6 and resultant G1 cell cycle growth arrest. […] We next assessed the level of apoptosis by FITC-annexin V incorporation in each of these cell lines.
# (§2) Huh7, CHLA-255, or Jeko-1 cells were seeded at 1.5 × 10^6 cells in 60-mm tissue culture dishes and allowed to adhere overnight. […] Cells were released with Accutase (Innovative Cell Technologies, San Diego, CA), washed with PBS and divided for either staining with the FITC Annexin V Apoptosis Detection Kit (BD Biosciences, San Jose, CA) or overnight fixation with ethanol followed by staining with propidium iodide (Roche, Basel, Switzerland) according to each manufacturers’ instructions. Cell staining was analyzed with the FACSCalibur flow cytometer (BD Biosciences) and FlowJo (FlowJo LLC, Ashland, Oregon) and ModFit LT (Verity Software House, Topsham, ME) software packages.
# JeKo-1 cells [1] = test: Propidium iodide flow cytometry cell cycle analysis, JeKo-1; assay type: cell-based; settings: 24 h
# Experimental: as §1, §2
# [2] = system: JeKo-1 subcutaneous xenografts; test: JeKo-1 subcutaneous xenograft in NGS mice; assay type: in vivo; settings: 40 mg/kg oral gavage, one week
# Experimental: (§7) Asterisks denote p ≤ 0.05 in comparison with vehicle control by unpaired Student’s t test.
# (§8) All procedures involving animals were approved by the UCSD Animal Care Committee, which serves to ensure that all federal guidelines concerning animal experimentation are met. Six to eight week old NGS mice were implanted with 10^7 Huh7 or Jeko-1 cells in the right flank. When tumors reached ∼100 mm^3 after tumor implantation, animals were divided into four groups (n = 8 per group). […] Mice were treated for 1 week by oral gavage, 5 times per week.
# Huh7 cells [3] = test: FITC-annexin V apoptosis assay, Huh7; assay type: cell-based; settings: treatment at the IC50, 24 h
# Experimental: as §1, §2
# CDK4 = system: CDK4; design: method as in PMID 32793389; settings: previously identified; cited from earlier work
# [4] = system: Huh7 subcutaneous xenografts; test: Huh7 subcutaneous xenograft in NGS mice; assay type: in vivo; settings: 30 mg/kg oral gavage, one week
# Experimental: as §7, §8
# Huh7 cells [5] = test: Propidium iodide flow cytometry cell cycle analysis, Huh7; assay type: cell-based; settings: 24 h
# Experimental: as §1, §2
# SKNBE-2 cells = test: CellTiter-Glo cell viability assay, SKNBE-2; assay type: cell-based; settings: Homo sapiens, SKNBE2, 48 h, read-out: IC50 anti-proliferative activity, neuroblastoma (SKNBE-2)
# From the text: (§3) Although many inhibitors of BRD4 have been developed, the importance of inhibition of both BDs to subdue pathological processes remains unclear, as the two bromodomains have high sequence similarity. We therefore examined whether inhibition of only one bromodomain of BRD4 could lead to sufficient anti-cancer effects.
# (§4) All cell lines were obtained from ATCC and tested for mycoplasma and mouse pathogens and checked for authenticity against the International Cell Line Authentication Committee (ICLAC; https://iclac.org/databases/cross-contaminations/) list. Cell viability measurements were performed using CellTiter-Glo luminescent cell viability assay (Promega). […] Cell Titer Glow assay reagent (100 µl) was added to each well and incubated for 10 min at room temperature. Luminescence signal was measured in a Varioscan multimode reader.
# PI3Kα = biological target: T1, PI3Kα (Homo sapiens, UniProt P42336); test: PI3K kinase screening assay (ADAPTA); assay type: biochemical
# T1 construct: purchased Life Technologies (Thermo Fisher Scientific)
# T1 sequence (P42336 whole entry): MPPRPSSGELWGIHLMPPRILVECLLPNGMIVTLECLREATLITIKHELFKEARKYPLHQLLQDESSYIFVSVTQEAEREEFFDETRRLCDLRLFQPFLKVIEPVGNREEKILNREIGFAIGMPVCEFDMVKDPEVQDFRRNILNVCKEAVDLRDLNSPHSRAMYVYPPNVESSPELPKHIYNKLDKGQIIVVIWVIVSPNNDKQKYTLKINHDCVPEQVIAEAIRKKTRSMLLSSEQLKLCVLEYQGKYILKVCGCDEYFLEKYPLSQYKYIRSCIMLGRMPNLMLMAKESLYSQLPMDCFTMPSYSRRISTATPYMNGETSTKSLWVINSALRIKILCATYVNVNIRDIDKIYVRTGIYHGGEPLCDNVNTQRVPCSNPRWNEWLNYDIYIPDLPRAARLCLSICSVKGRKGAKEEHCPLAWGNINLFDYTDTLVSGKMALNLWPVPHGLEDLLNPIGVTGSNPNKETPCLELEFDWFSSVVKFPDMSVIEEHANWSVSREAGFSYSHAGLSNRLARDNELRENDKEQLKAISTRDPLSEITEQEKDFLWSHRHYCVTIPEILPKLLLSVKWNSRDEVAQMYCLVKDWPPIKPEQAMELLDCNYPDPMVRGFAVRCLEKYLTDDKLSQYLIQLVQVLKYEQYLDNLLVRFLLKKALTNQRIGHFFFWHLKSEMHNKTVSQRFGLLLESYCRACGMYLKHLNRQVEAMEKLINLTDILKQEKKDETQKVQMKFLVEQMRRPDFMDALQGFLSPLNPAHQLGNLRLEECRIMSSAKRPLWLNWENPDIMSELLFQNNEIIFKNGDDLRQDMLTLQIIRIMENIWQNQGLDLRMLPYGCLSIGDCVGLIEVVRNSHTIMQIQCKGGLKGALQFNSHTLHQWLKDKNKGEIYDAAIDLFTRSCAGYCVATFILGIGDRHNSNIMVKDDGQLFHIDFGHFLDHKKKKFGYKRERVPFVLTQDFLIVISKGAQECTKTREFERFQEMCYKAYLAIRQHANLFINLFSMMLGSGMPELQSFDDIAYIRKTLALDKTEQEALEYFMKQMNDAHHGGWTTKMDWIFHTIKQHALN
# T1 sequence (P27986 whole entry partner): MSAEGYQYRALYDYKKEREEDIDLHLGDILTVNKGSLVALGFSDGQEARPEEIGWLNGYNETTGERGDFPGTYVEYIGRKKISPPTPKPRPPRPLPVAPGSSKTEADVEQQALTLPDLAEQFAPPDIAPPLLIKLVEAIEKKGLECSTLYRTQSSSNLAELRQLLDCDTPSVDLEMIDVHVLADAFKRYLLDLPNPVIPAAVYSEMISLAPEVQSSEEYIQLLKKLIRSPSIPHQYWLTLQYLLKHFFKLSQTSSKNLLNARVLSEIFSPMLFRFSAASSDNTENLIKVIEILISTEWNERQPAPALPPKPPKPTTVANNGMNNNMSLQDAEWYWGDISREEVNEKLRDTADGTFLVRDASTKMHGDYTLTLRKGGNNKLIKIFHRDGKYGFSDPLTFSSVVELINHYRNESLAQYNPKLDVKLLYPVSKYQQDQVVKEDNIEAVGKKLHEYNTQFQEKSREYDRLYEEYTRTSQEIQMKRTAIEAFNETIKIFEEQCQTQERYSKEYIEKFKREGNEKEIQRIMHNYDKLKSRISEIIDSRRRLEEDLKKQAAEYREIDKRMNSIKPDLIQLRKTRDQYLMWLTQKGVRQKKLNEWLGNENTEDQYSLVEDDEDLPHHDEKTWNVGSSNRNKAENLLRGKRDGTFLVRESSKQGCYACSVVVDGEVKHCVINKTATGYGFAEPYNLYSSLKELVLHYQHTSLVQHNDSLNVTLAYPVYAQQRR
# Experimental: (§5) In effort to enhance its potency, we designed a new set of chemotypes by in silico screening. […] These compounds were synthesized and their activities toward BRD4BD1 and BRD4BD2 were assessed in a displacement binding assay using the polyacetylated histone H4 peptide H4K5acK8acK12acK16ac as a ligand (Fig. 1b).
# (§6) PI3K activity screening and IC50 measurements were performed by Life Technologies (Thermo Fisher Scientific) using ADAPTA, a fluorescence-based in vitro assay.
# BRD4BD1 = biological target: T2, BRD4BD1 (Homo sapiens, UniProt O60885); test: AlphaScreen displacement binding assay with tetra-acetylated histone H4 peptide, BRD4BD1; settings: for IC50: displacement of H4K5acK8acK12acK16ac peptide
# T2 construct: His; purchased Reaction Biology
# Experimental: as §5, §6
# Mino cells = test: CellTiter-Glo cell viability assay, Mino; assay type: cell-based; settings: Homo sapiens, mantle cell lymphoma, 48 h, read-out: IC50 anti-proliferative activity, Mino
# From the text: as §3, §4
# BRD4BD2 = biological target: T3, BRD4BD2 (Homo sapiens, UniProt O60885); test: AlphaScreen displacement binding assay with tetra-acetylated histone H4 peptide, BRD4BD2; settings: displacement of H4K5acK8acK12acK16ac peptide
# T3 construct: His; purchased Reaction Biology
# Experimental: as §5, §6
# [6] = system: AKT phosphorylation at Ser473 (PI3K activity) in JeKo-1 cells; test: Western blot of AKT phosphorylation at Ser473 in IgM-stimulated JeKo-1 cells; assay type: cell-based; settings: JeKo-1 cells stimulated with IgM, 1 h incubation, increasing concentrations up to 5 µM
# Experimental: as §3
# Cells were resuspended with 1 ml of RPMI-1640 (serum free) and stimulated with 10 µg/ml of goat F(ab) 2 anti-human IgM antibody (Southern Biotech Birmingham, AL, USA) at 37 °C for 10 min. Cells were then harvested and lysed with RIPA buffer followed by Western blot analysis for pAKT expression.
# PC3 cells = test: CellTiter-Glo cell viability assay, PC3; assay type: cell-based; settings: PTEN mutated, 48 h
# From the text: as §3, §4
# Z138 cells = test: CellTiter-Glo cell viability assay, Z138; assay type: cell-based; settings: Homo sapiens, Z-138, mantle cell lymphoma, 48 h, read-out: IC50 anti-proliferative activity, Z138
# From the text: as §3, §4
# JeKo-1 cells [7] = test: CellTiter-Glo cell viability assay, JeKo-1; assay type: cell-based; settings: Homo sapiens, mantle cell lymphoma, 48 h, read-out: IC50 anti-proliferative activity, JeKo-1
# From the text: as §3, §4
# HCT116 cells = test: CellTiter-Glo cell viability assay, HCT116; assay type: cell-based; settings: Homo sapiens, HCT-116, 48 h, read-out: IC50 anti-proliferative activity, colon carcinoma (HCT116)
# From the text: as §3, §4
SMILES,IC50 (SKNBE-2 cells) [nM],IC50 (PI3Kα) [nM],IC50 (BRD4BD1) [nM],IC50 (Mino cells) [nM],IC50 (BRD4BD2) [nM],AKT phosphorylation at Ser473 [6],cytotoxic activity in prostate cancer cell line PC3 (PC3 cells),IC50 (Z138 cells) [nM],IC50 (JeKo-1 cells [7]) [nM],also measured
CN(C)C(=O)c1cc2cnc(Nc3ccc(-c4csc5c(=O)cc(N6CCOCC6)oc45)cc3)nc2n1C1CCCC1 [SRX3177],,,,,,,,,,"cell cycle arrest at low dosage (near the IC10), CHLA-255 (CHLA-255 cells): induction of G1 cell cycle arrest; cell cycle arrest at higher doses (near the IC50), JeKo-1 (JeKo-1 cells [1]): induced G2 phase growth arrest; cell cycle arrest at low dosage (near the IC10), JeKo-1 (JeKo-1 cells [1]): induction of G1 cell cycle arrest; tumor growth vs vehicle control, JeKo-1 xenograft [2]: significant abrogation of tumor growth; induction of early apoptosis, Huh7 (Huh7 cells [3]): ~ threefold; IC50 (CDK4): 2.5 nM; tumor growth vs vehicle control, Huh7 xenograft [4]: significant abrogation of tumor growth; cell cycle arrest at higher doses (near the IC50), Huh7 (Huh7 cells [5]): induced G2 phase growth arrest; cell cycle arrest at low dosage (near the IC10), Huh7 (Huh7 cells [5]): induction of G1 cell cycle arrest; mortality (mouse, in vivo, po): no treatment-related death; adverse effects / toxicity (oral gavage, one week): no adverse effects were noted; animal weight (oral gavage, one week, vs vehicle): remained the same"
O=C(NCc1cccnc1)c1cc(-c2csc3c(=O)cc(N4CCNCC4)oc23)cc2c1OCCO2 [SRX3212P],15000,5700,27,3900,2810,did not decrease AKT phosphorylation,Neither inhibitor sensitized,2900,3100,
O=c1cc(N2CCNCC2)oc2c(-c3ccc4c(c3)OCCO4)csc12 [SF2523P],,48700,388,,15700,,,,,
O=C(NCc1cccnc1)c1cc(-c2csc3c(=O)cc(N4CCOCC4)oc23)cc2c1OCCO2 [SRX3212],3200,22,3.7,440,32,concomitant decrease in levels of AKT phosphorylation at Ser473,Neither inhibitor sensitized,240,280,increase in potency of SRX3212 compared to SRX3212P (BRD4BD1; BRD4BD1): sevenfold; IC50 (HCT116 cells): 1300 nM
